From patent publication US6040149A, “Assay for identifying agents which act on the ceramide-activated protein kinase, kinase suppressor of ras, and methods of using said agents” (priority 1997, dated 2000)
Read-outs that look alike come from different tables or passages of the source.

Columns and labels:
[1] = tested on: ceramide-activated protein kinase; experiment: EGFR peptide phosphorylation by kinase in A-431 microsomal membranes / postnuclear supernatant; format: biochemical, human (A-431 epidermoid carcinoma cells)
Procedure: Kinetics of ^32 Pi incorporation into the EGFR peptide. […] The reaction was initiated by addition of 50 μl of [γ-^32 P]ATP (150 μM final concentration) and terminated by addition of 50 μl of 0.5 M ATP in 90% (vol/vol) formic acid. Samples were spotted on phosphocellulose paper, washed with 1 M acetic acid/4 mM pyrophosphate, and ^32 P incorporation was measured by liquid-scintillation counting, as described. A boiled protein blank was subtracted from each data value. The data (means) represent duplicate samples from one of two similar experiments. […]
Kinetics of ceramide-induced ^32 Pi incorporation into EGFR peptide. Peptide phosphorylation was done as described in FIG. 2 in the absence (.smallcircle.) or presence (.circle-solid.) of 0.5 μM C8 -ceramide. Phosphorylated peptide was resolved by HPLC. Values (means) represent data from three experiments.
Concentration-dependence of ceramide-induced ^32 Pi incorporation into EGFR peptide. Peptide phosphorylation reactions were done as described for FIG. 2, for 2 minutes, using various concentrations of ceramide (0.001-3 μM). Phosphorylated peptide was resolved by HPLC. Values (means) represent data from three experiments. […]
Phosphorylation was initiated at 22° C. by addition of 50 μl of [γ-^32 P] ATP (150 μM final concentration; 4000 dpm/pmol). For studies with lipid activators, ceramide and other lipids were dried under N2 and resuspended in the kinase assay buffer by bath sonication for 2 minutes at 37° C.
Phosphorylated peptide was quantified by two separate methods. For initial studies, samples were spotted on phosphocellulose paper, washed in 1 M acetic acid/4 mM pyrophosphate and subjected to liquid scintillation counting, according to methods well known to those skilled in the art. Values obtained from a boiled blank or a sample lacking peptide were subtracted from each determination. Alternatively, HPLC was done according to methods well known to those skilled in the art. For these studies, samples were first applied to a C18 Sep-Pak cartridge and eluted with 99.9% acetonitrile/0.1% trifluoroacetic acid. The eluates were lyophilized, resuspended in 6 M guanidine hydrochloride/200 mM Tris, pH 8.5 and applied to a C18 reverse-phase column (Dynamax, 4.6 mm i.d., Rainin, Woburn, Mass.). The peptide was eluted with a linear gradient (1% per minute) of acetonitrile at a flow rate of 1 ml/minute and was detected by measuring the Cerenkov radiation associated with 1-ml fractions.

[2] = tested on: ceramide-activated protein kinase; experiment: Ceramide-activated protein kinase activity (EGFR peptide) in EL-4 cell fractions; details: baseline, EL-4 membranes
Procedure: Effect of IL-1β on ceramide-activated protein kinase activity. […] Homogenates were centrifuged at 500×g for 5 minutes to remove nuclei and at 200,000×g for 30 minutes to prepare microsomal membranes. Membranes were resuspended into homogenizing buffer (2.2 μg membrane protein μl^-1). For assay of kinase activity, the reaction mixture contained 20 μl of microsomal membrane, 40 μl EGFR peptide (4 mg ml^-1 in 25 mM Hepes, pH 7.4) and 100 μl buffer (50 mM HEPES, pH 7.4, 20 mM MgCl2). Phosphorylation was initiated at 22° C. by addition of 40 μl [γ-^32 P] ATP (100 μM final concentration) and terminated at the indicated times by addition of 40 μl of 0.5 M ATP in 90% formic acid. Phosphorylated peptide was eluted from a C18 Sep pak cartridge (Millipore), lyophilized, and resolved by C18 reverse phase HPLC using a linear gradient of acetonitrile. […] All assays were performed under conditions determined as linear for time and enzyme concentration. Enzyme activity was determined from the percent conversion of substrate to product and the specific radioactivity of [γ-^32 P] ATP. […] Values (mean±range) represent duplicate determinations from two experiments.
Activity was measured by the transfer of ^32 P from the γ-position of ATP to EGFR peptide (AA 663-681 of the EGFR). The effect of IL-1β on kinase activity was determined using microsomal membranes derived from cells stimulated with IL-1β.

[3] = tested on: ceramide-activated protein kinase; details: nuclei-free supernates, ref. [40], cited from earlier work
[4] = tested on: CAP kinase; experiment: Phosphorylation of Raf-1 peptides by CAP kinase; format: biochemical, bovine (brain)
[5] = tested on: ceramide-activated protein kinase; experiment: CAP kinase activation in HL-60 cells (renaturation and autophosphorylation); format: cell-based, human (HL-60 cells)
Procedure: Stimulation of ceramide-activated protein (CAP) kinase by lipid A. On the day of an experiment, HL-60 cells were resuspended (1×10^6 cells ml^-1) into serum-free RPMI 1640 containing 5 μg ml^-1 insulin and transferrin. After 2 h, cells were stimulated with lipid A (Escherichia Coli) or diluent (DMSO, <0.01%). Ceramide-activated protein kinase contained within microsomal membranes was detected by renaturation and autophosphorylation. Briefly, membrane proteins (200 μg per lane) were separated by SDS-PAGE (10%), and the gel was washed with two changes of buffer (50 mM Tris, pH 7.4, 5 mM 2-mercaptoethanol) containing 20% 2-propanol at room temperature for 1 h, and once in buffer without 2-propanol for 1 h. Denaturation was accomplished by incubation of the gel in two changes of 6M guanidinium HCl in wash buffer for 1 h each. Renaturation was accomplished by incubation of the gel overnight at 4° C. in wash buffer containing 0.04% Tween-20. The gel was then equilibrated for 10 min at room temperature in kinase reaction mixture (25 mM HEPES, pH 7.4, 10 mM MgCl2, 0.5 mM EGTA and 5 mM NaF) and [γ-^32 p] ATP (50 μM final concentration; 1000 dpm pmol^-1) was added. Autophosphorylation was terminated by removal of the reaction mixture. The gel was washed with 6 changes of buffer (5% trichloroacetic acid, 1% sodium pyrophosphate) for 2 h and subjected to autoradiography. Top panel--Time course of lipid A activation. Bottom panel--Dose response at 5 minutes of lipid A stimulation. Autoradiograms represent one of three similar studies in both panels A and B.
On the day of an experiment, cells were resuspended (1×10^6 cells ml^-1) into serum-free RPMI 1640 containing 5 μg ml^-1 insulin and transferrin. After 2 h, cells were stimulated with lipid A or diluent (DMSO, <0.01% ). […] The postnuclear supernate was centrifuged at 200,000×g for 30 min and microsomal membranes were resuspended ([…]) into homogenizing buffer. Ceramide-activated protein kinase was detected by renaturation and autophosphorylation. Briefly, membrane proteins (200 μg per lane) were separated by SDS-PAGE (10%), and the gel was washed with two changes of buffer (50 mM Tris, pH 7.4, 5 mM 2-mercaptoethanol) containing 20% 2-propanol at room temperature for 1 h, and once in buffer without 2-propanol for 1 h. Denaturation was accomplished by incubation of the gel in two changes of 6M guanidinium HCl in wash buffer for 1 h each. Renaturation was accomplished by incubation of the gel overnight at 4° C. in wash buffer containing 0.04% Tween-20. The gel was then equilibrated for 10 min at room temperature in kinase reaction mixture (25 mM HEPES, pH 7.4, 10 mM MgCl2, 0.5 mM EGTA and 5 mM NaF) and [γ-^32 P] ATP (50 μM final concentration; 1000 dpm pmol^-1. Autophosphorylation was terminated by removal of the reaction mixture. The gel was washed with 6 changes of buffer (5% trichloracetic acid, 1% sodium pyrophosphate) for 2 h and subjected to autoradiography.
For studies involving activation of ceramide-activated protein kinase by LPS, HL-60 cells (13×10^6 ml^-1) were handled as above, and LPS (Salmonella typhosa, 50 ng ml^-1), recombinant LBP (1.7 μg ml^-1) or both LPS and LBP were added for the times indicated. Isolation of microsomal membranes and autophosphorylation of ceramide-activated protein kinase were performed as above.

[6] = tested on: ceramide-activated protein kinase; experiment: Ceramide-activated protein kinase activity toward MBP after HL-60 cell treatment; format: cell-based, human (HL-60 cells)
Procedure: Membrane proteins (200 μg) from treated and untreated cells were subjected to SDS-PAGE and kinase activity was renatured as above. Autophosphorylation was allowed to proceed for 10 min and the gel was washed for 20 min with four changes of 50 mM HEPES buffer, pH 7.4. Gel slices were then excised from regions corresponding to 100-110 KDa, crushed, and incubated for 1 h with 10μ MBP (5 mg ml^-1) and 40 μl kinase reaction mixture in the presence of [γ-^32 P]ATP (50 μM final concentration). Reactions were terminated by addition of 10 μl Laemmli buffer, boiling for 3 min, and centrifugation of gel particles. The supernates were subjected to electrophoresis and autoradiography.
Since prior studies correlated enhanced autophosphorylation of ceramide-activated protein kinase with increased kinase activity toward exogenous substrate, the effect of kinase activity toward MBP was examined after treatment of HL-60 cells with lipid A. For these studies, gel slices corresponding to ceramide-activated protein kinase were subjected to autophosphorylation for 10 min in buffer containing ATP (50 μM final concentration), and then were washed and incubated with MBP in a kinase reaction mixture containing [γ-^32 P]ATP [119]. After termination of reactions, samples were subjected electrophoresis and visualized by autoradiography. […] Enhancement of MBP phosphorylation was detectable at 0.5 min of lipid A treatment and maximal at 15 min.

Molecule: Nc1ncnc2c1ncn2[C@@H]1O[C@H](COP(=O)(O)OP(=O)(O)OP(=O)(O)O)[C@@H](O)[C@H]1O [ATP, adenosine triphosphate]
- Km ([1]; 5 minutes, Lineweaver-Burke, read-out: apparent Km (ATP)): 15 µM
- Km ([2]; read-out: Km (ATP)): 70 µM
- Km ([3]; read-out: Km (ATP)): 15 µM

Molecule: NH2 -Glu-Leu-Val-Glu-Pro-Leu-Thr-Pro-Ser-Gly-Glu-Ala-Pro-Asn-Gln-Ala-Leu-Leu-Arg-COOH (H-ELVEPLTPSGEAPNQALLR-OH) [EGFR peptide]
- apparent Km (EGFR peptide) ([1]; 5 minutes, Lineweaver-Burke): 0.25 mg/mL
- apparent Vmax ([1]; EGFR peptide phosphorylation): 100-200 pmol.min^-1.mg of protein^-1
- Km (EGFR peptide) [2]: 0.15 mg/mL
- maximum reaction velocity [2]: 12.5 pmol min^-1 mg^-1 of microsomal membrane protein
- Km (peptide) [3]: 0.25 mg/mL

Molecule: RQRSTSTPNVHMVSAALPVDSRMIE [AALP (SEQ ID NO: 6)]
- phosphorylation of Raf-1 peptide by CAP kinase [4]: failed to phosphorylate

Molecule: lipid A
- maximal activation of ceramide-activated protein kinase ([5]; 500 nM lipid A, of control): 5 fold
- earliest detection of increased autophosphorylation ([5]; early kinetics studies): 30 s
- concentration of maximal effect ([5]; lipid A): 500 nM
- lowest effective concentration ([5]; lipid A): 10 nM
- duration of enhanced autophosphorylation ([5]; lipid A 5 μM): 60 min
- enhancement of autophosphorylation detected at ([5]; lipid A 5 μM): 5 min
- onset of enhanced MBP phosphorylation ([6]; lipid A): 0.5 min
- time of maximal MBP phosphorylation ([6]; lipid A): 15 min
- enhancement of MBP phosphorylation ([6]; lipid A-treated HL-60 cells): 5 fold
